Drawing on patent US20110028405A1, “SULFAMIDES AS ZAP-70 INHIBITORS” (priority 2007, published 2011), this text covers IC50 for nine molecules.

One test deals with T1, ZAP-70 (Homo sapiens, UniProt P43403).
T1 construct: endogenous in cells; host or cells: cell lysate
T1 sequence (P43403 1-619): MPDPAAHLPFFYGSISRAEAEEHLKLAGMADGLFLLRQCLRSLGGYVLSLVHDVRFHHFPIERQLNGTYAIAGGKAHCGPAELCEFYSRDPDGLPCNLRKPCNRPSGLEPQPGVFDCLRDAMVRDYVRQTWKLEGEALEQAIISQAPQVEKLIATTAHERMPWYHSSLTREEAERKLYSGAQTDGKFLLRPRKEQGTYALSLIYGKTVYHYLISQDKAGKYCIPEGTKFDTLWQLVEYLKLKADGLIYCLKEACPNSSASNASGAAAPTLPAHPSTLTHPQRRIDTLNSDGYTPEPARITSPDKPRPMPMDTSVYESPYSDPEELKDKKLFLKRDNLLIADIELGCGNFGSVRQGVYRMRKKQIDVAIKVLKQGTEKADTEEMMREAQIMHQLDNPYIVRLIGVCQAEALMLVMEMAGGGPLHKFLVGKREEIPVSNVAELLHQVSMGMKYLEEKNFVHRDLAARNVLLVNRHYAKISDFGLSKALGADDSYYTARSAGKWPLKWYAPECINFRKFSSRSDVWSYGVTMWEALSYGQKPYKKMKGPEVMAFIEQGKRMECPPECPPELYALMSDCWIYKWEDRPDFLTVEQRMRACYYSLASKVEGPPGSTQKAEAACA
As to the kind of experiment: ZAP-70 kinobeads assay. Format: binding. To be noted: cell lysate, dot blot detection. On the procedure: The compounds of the present invention as described in the previous examples can be tested in the ZAP-70 kinobeads assay as described (EP-A 1862802 and WO-A 2007/137867). Briefly, test compounds (at various concentrations) and the affinity matrix with the immobilized aminopyrido-pyrimidine ligand 24 are added to cell lysate aliquots and allowed to bind to the proteins in the lysate sample. After the incubation time the beads with captured proteins are separated from the lysate. Bound proteins are then eluted and the presence ZAP-70 is detected and quantified using a specific antibody in a dot blot procedure and the Odyssey infrared detection system.

Another test deals with Jurkat cells. As to the kind of experiment: Calcium release assay (Fluo-4, flow cytometry, anti-CD3 stimulation). In kind it is cell-based. To be noted: Homo sapiens; intracellular Ca2+ release in Jurkat cells after anti-CD3 activation. On the procedure:
Compounds of the present invention were tested in a Calcium release assay as described below.
The development of fluorescent probes makes it possible to measure the concentration of intracellular free Calcium ions in single living cells. Cells are first loaded with a cell-permeable Ca^2+-sensitive dye, then the test compound is added. Finally, cells are activated through the T cell receptor with an anti-CD3 antibody shortly before data acquisition on the flow cytometer. The release of Ca^2+ is measured as a function of time after cell stimulation. This protocol describes the flow cytometry method using the Fluo-3 and Fluo-4 dyes (Minta et al., 1989, J. Biol. Chem. 264(14):8171-8178) to measure the intracellular Ca^2+ concentration in Jurkat cells (see also June et al., 1997, Measurement of intracellular calcium ions by flow cytometry. In: Current Protocols in Cytometry (1997) Unit 9.8.1-9.8.19, John Wiley & Sons, Inc.).
1) Prepare a work plan indicating the number of samples to be analyzed including controls. 2) Cell harvest: Centrifuge 50 to 100 ml of a Jurkat cell culture for 5 minutes at 1100 rpm. Discard the supernatant, pool the resuspended cell pellets in a single 50 ml Falcon tube, and fill up to 50 ml with PBS-CaCl2 (without FCS). Centrifuge again sample again. 3) Resuspend cell pellet with PBS-CaCl2 (without FCS) to achieve a concentration not lower than 10×10^6 cells/ml. Prepare an adequate dilution to evaluate the cell concentration and count the cells. 4) Separate the volume of cells needed to be loaded (for example […] for 20 samples) in a 50 ml Falcon tube. Fill up with PBS-CaCl2 to 900 μl for 107 cells. 5) Prepare in the dark a 1:1 mix of FLUO-4 (1 mM)+Pluronic F-127 (20%). 5 μl of Fluo-4 are needed per 107 cells. 6) Prepare a 1/10 dilution of this mix with PBS-CaCl2 (in the dark; for example 5 μl Fluo-4+5 μl F-127 completed to 100 μl). 7) Add the dye solution to the cells. […] 8) Incubate the sample for 30 minutes in a cell incubator (37° C., 5% CO2). Mix from time to time. 9) During this time prepare the adequate test compound dilution in PBS-CaCl2 (with 10% FCS). The solution should be 10 times more concentrated than the desired final concentration. Vortex each dilution. Prepare also the antibody dilutions: anti-CD3 (1/200) and GAM (1/25). 10) Label FACS tubes and distribute in the corresponding tube 30 μl of the compound dilution or only buffer for the control tubes. 11) After 30 minutes of incubation wash the cells twice in PBS-CaCl2 (with 10% FCS). During the washing steps make sure that the flow cytometer is already “ON” in order to warm the laser. 12) Resuspend the cell pellet in PBS-CaCl2 (with 10% FCS) at a concentration of 1.5×10^6 cells/ml. 13) Distribute 300 μl of cell suspension into the FACS tubes and mix gently. The compound incubation is starting. Keep samples at room temperature in the dark. 14) Open the settings of the cytometer. It is advised to have a template ready which is used for all measurements. Settings of the machine should also be the same from one experiment to the other which permits to evaluate the reproducibility of the cell preparation. 15) In Setup modus control your cell preparation on the cytometer. Cells should fit in the pre-defined gates. 16) During the compound incubation time, check also that cells are responding to the anti-CD3 activation as expected. Set a timer at 8 sec. Add 6 μl of anti-CD3 dilution (0.2 μg/ml final) and mix gently. Add 1 μl of GAM dilution (0.75 μg/ml final) and mix gently. Incubate the samples in water bath at 37° C. while starting timer. After 8 seconds of incubation, acquire data at medium speed for 200 seconds. A clear increase of fluorescence should appear after 1 minute. 17) Make sure that the cells rest and equilibrate at room temperature 15 minutes before FACS data acquisition 18) Data acquisition: Samples to be compared should be measured consecutively. 19) For a better reproducibility, make sure that data for the loaded cells are acquired within 2 hours. […]

The structures appear in SMILES notation.

With `COc1cc(Nc2nccc(Nc3ccccc3NS(N)(=O)=O)n2)cc(OC)c1OC` [Example 23, N-(2-(2-(3,4,5-trimethoxyphenylamino)pyrimidin-4-ylamino)phenyl)sulfamide], the IC50 at ZAP-70 and in the test with Jurkat cells was less than 1000 nM each time.
With `COc1ccc(NS(N)(=O)=O)c(Nc2nc(Nc3cc(OC)c(OC)c(OC)c3)ncc2F)c1` [Example 36, N-(2-(5-fluoro-2-(3,4,5-trimethoxyphenylamino)pyrimidin-4-ylamino)-4-methoxyphenyl)sulfamide], the results for the IC50 against ZAP-70 and in the test on Jurkat cells were less than 50000 nM and less than 1000 nM, respectively.
On the same counts, the results for `COc1cc(Nc2ncc(F)c(Nc3ccc(C)c(C)c3NS(N)(=O)=O)n2)cc(OC)c1OC` [Example 31, N-(6-(5-fluoro-2-(3,4,5-trimethoxyphenylamino)pyrimidin-4-ylamino)-2,3-dimethylphenyl)sulfamide] are less than 1000 nM and less than 1000 nM.
For the molecule `COc1cc(Nc2ncc(F)c(Nc3ccc(N4CCOCC4)cc3NS(N)(=O)=O)n2)cc(OC)c1OC` [Example 35, N-(2-(5-Fluoro-2-(3,4,5-trimethoxyphenylamino)pyrimidin-4-ylamino)-5-morpholinophenyl)sulfamide], the IC50 against ZAP-70 and with Jurkat cells was less than 1000 nM in each case.
In the case of `COc1cc(Nc2ncc(F)c(Nc3cc(F)ccc3NS(N)(=O)=O)n2)cc(OC)c1OC` [Example 37, N-(4-fluoro-2-(5-fluoro-2-(3,4,5-trimethoxyphenylamino)pyrimidin-4-ylamino)phenyl)sulfamide], the IC50 against ZAP-70 and in the test on Jurkat cells was less than 1000 nM each time.
In the case of `COc1cc(Nc2ncc(F)c(Nc3cccc(C)c3NS(N)(=O)=O)n2)cc(OC)c1OC` [Example 30, N-(2-(5-fluoro-2-(3,4,5-trimethoxyphenylamino)pyrimidin-4-ylamino)-6-methylphenyl)sulfamide], the IC50 at ZAP-70 and in the test with Jurkat cells was less than 100 nM in each case.
As to `CN(C)c1ccc(Nc2ncc(Br)c(Nc3ccccc3NS(N)(=O)=O)n2)cc1` [Example 25], the IC50 – broadly, the point on the concentration scale where inhibition reaches its midpoint – is less than 1000 nM against ZAP-70 and less than 100 nM in the test with Jurkat cells.
On the same counts, the results for `COc1cc(Nc2ncc(F)c(Nc3ccc(C)cc3NS(N)(=O)=O)n2)cc(OC)c1OC` [Example 34, N-(2-(5-Fluoro-2-(3,4,5-trimethoxyphenylamino)pyrimidin-4-ylamino)-5-methylphenyl)sulfamide] are less than 1000 nM and less than 1000 nM.
On the same counts, the results for `COc1cc(Nc2ncc(F)c(Nc3ccccc3NS(=O)(=O)N(C)C)n2)cc(OC)c1OC` [Example 11, N-(2-(5-fluoro-2-(3,4,5-trimethoxyphenylamino)pyrimidin-4-ylamino)phenyl)-N′,N′-dimethylsulfamide] are less than 1000 nM and less than 1000 nM.
